Experimental data from patent US20250313553A1, “ANNULATED 2-AMINO-3-CYANO THIOPHENES AND DERIVATIVES FOR THE TREATMENT OF CANCER” (Boehringer Ingelheim Int'l GmbH Corp., priority 2021, published 2025).

Key:
KRAS (G12C) and SOS1 = target: T1, KRAS (G12C) and SOS1 (Homo sapiens, UniProt P01116, C118S/C51S/C80L/G12C); test: KRAS::SOS1 AlphaScreen binding assay, KRAS G12C
T1 construct: KRAS (G12C) 1-169, N-terminal 6His-tag for purification; 6His (N, cleaved yes)
Description: Low IC50 values in this assay setting are indicative of strong inhibition of protein-protein interaction between SOS1 and KRAS:
These assays measure the inhibitory effect of compounds on KRAS mutant protein-protein interactions using the Alpha Screen technology by Perkin Elmer.
For the chosen highest assay concentration of 100 μM, 150 nL of compound solution are transferred from a 10 mM DMSO compound stock solution. A series of eleven fivefold dilutions per compound are transferred to the assay plate, compound dilutions are tested in duplicates. DMSO are added as backfill to a total volume of 150 nL.
The assays run on a fully automated robotic system in a darkened room below 100 Lux. To 150 nl of compound dilution 10 μl of a mix including KRAS mutant protein, SOS1 (final assay concentrations see above) and GDP nucleotide (Sigma G7127; final assay concentration 10 μM) in assay buffer (1×PBS, 0.1% BSA, 0.05% Tween 20) are added into columns 1-24. After 30 minutes incubation time 5 μl of Alpha Screen bead mix in assay buffer are added into columns 1-23.
Plates are kept at room temperature in a darkened incubator. After an additional 60 minutes incubation time the signal is measured in a PerkinElmer Envision HTS Multilabel Reader using the AlphaScreen specs from PerkinElmer.
IC50 values are calculated and analyzed with Boehringer Ingelheim's MEGALAB IC50 application using a 4 parametric logistic model.

[1] = test system: ERK phosphorylation in NCI-H358 (KRAS G12C); test: ERK phosphorylation assay (assay 1, NCI-H358); type: cell-based; details: Homo sapiens; NCI-H358, assay 1, 1 h incubation; read-out: IC50 H358 pERK
Description: Low IC50 values in this assay setting are indicative of high potency of the compounds according to the invention. […]
The cells are incubated for 1 h at room temperature and then incubated overnight in an incubator at 37° C. and 5% CO2 in a humidified atmosphere. 60 nL compound solution (10 mM DMSO stock solution) is then added using a Labcyte Echo 550 device. […] After 20 min of incubation at room temperature with shaking, 6 μL of each lysate sample is transferred to a 384-well Proxiplate and analyzed for pERK (Thr202/Tyr204) with the AlphaLISA SureFire Ultra pERK1/2 (Thr202/Tyr204) Assay Kit. 3 μL Acceptor Mix and 3 μL Donor Mix are added under subdued light and incubated for 2 h at room temperature in the dark, before the signal is measured on a PerkinElmer Envision HTS Multilabel Reader. The raw data are imported into and analyzed with the Boehringer Ingelheim proprietary software MegaLab (curve fitting based on the program PRISM, GraphPad Inc.).

[2] = Metabolic (microsomal) stability assay, HLM; type: in vitro ADME; details: human liver microsomes, 1 μM, predicted clearance as percent of liver blood flow
Description: The metabolic degradation of the test compound is assayed at 37° C. with pooled liver microsomes (mouse (MLM), rat (RLM) or human (HLM)). The final incubation volume of 48 μL per time point contains TRIS buffer (pH 7.5; 0.1 M), magnesium chloride (6.5 mM), microsomal protein (0.5 mg/mL for mouse/rat, 1 mg/mL for human specimens) and the test compound at a final concentration of 1 μM. Following a short preincubation period at 37° C., the reactions are initiated by addition of 12 μL beta-nicotinamide adenine dinucleotide phosphate, reduced form (NADPH, 10 mM) and terminated by transferring an aliquot into solvent after different time points (0, 5, 15, 30, 60 min). Additionally, the NADPH-independent degradation is monitored in incubations without NADPH, terminated at the last time point by addition of acetonitrile. The quenched incubations are pelleted by centrifugation (4,000 rpm, 15 min). An aliquot of the supernatant is assayed by LC-MS/MS to quantify the concentration of parent compound in the individual samples.
In vitro intrinsic clearance (CLint, in vitro) is calculated from the time course of the disappearance of the test drug during the microsomal incubation. Each plot is fitted to the first-order elimination rate constant as C(t)=C0*exp(−ke*t), where C(t) and C0 are the concentration of unchanged test drug at incubation time t and that at preincubation and ke is the disappearance rate constant of the unchanged drug. Subsequently, CLint, in vitro (μL min^−1·amount protein) values are converted to predicted CLint, in vivo (mL min^−1·kg^−1) from incubation parameters according to the equation CLint, in vivo=CLint, in vitro×(incubation volume (ml)/amount protein (mg))×(amount protein (mg)/g liver tissue)×(liver weight/body wt.). For better across species comparison the predicted clearance is expressed as percent of the liver blood flow [% QH](mL min^−1·kg^−1) in the individual species. In general, high stability (corresponding to low % QH) of the compounds across species is desired.

Caco-2 assay = type: in vitro ADME; details: human; for Papp A→B at 90 min, 10 μM: Caco-2, pH 7.4, apical to basolateral, read-out: Caco PappAB; for efflux ratio at 90 min, 10 μM: Caco-2, pH 7.4, efflux ratio PappBA/PappAB, read-out: Caco ER
Description: The assay provides information on the potential of a compound to pass the cell membrane, on the extent of oral absorption as well as on whether the compound is actively transported by uptake and/or efflux transporters. Permeability measurements across polarized, confluent Caco-2 cell monolayers grown on permeable filter supports (Corning, catalog #3391) are used. […] The receiver and donor compartments contain 0.25% bovine serum albumine (BSA) in assay buffer. […] After a pre-incubation of 25-30 min at 37° C., at predefined time points (0, 30, 60 and 90 min), samples were taken from the receiver and donor compartment, respectively. Concentrations of test compounds in samples were measured by HPLC/MS/MS, samples from the donor compartment were diluted 1:50 (v:v) with assay buffer, samples from receiver compartment were measured without dilution.
Apparent permeabilities in a-b (PappAB) and b-a (PappBA) directions are calculated according to the formula:
[formula] • Vrec [mL]: buffer volume in receiver compartment • Cdon [μmol/mL]: concentration of test compound in donor compartment at t=0 • ΔCrec: difference between concentrations of test compound in receiver compartment at start and end of incubation time • Δt: Incubation time • Vrec·ΔCrec/Δt [μmol/min]: Amount of compound transferred to receiver compartment per time • A [cm^2]: filter surface
Caco-2 efflux ratios (ER) are calculated as the ratio of PappBA/PappAB.

T1 sequence (P01116 1-169 isoform P01116-2 G12C/C51S/C80L/C118S): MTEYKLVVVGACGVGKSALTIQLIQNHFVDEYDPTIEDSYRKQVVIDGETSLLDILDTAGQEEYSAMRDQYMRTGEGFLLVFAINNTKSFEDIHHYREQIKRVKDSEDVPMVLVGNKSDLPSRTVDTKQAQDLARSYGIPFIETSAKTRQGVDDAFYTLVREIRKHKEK

IC50 (KRAS (G12C) and SOS1) [nM] | IC50 [1] [nM] | HLM QH [2] [%] | Papp A→B at 90 min, 10 μM (Caco-2 assay) [×10⁻⁶ cm/s] | efflux ratio at 90 min, 10 μM (Caco-2 assay) | Structure (SMILES)
7 | 12 | 87 | 11.3 | 3.2 | C[C@H](Oc1nccc(-c2noc([C@@]3(C)CCCc4sc(N)c(C#N)c43)n2)n1)[C@@H]1CCCN1C [Example V-10]
22 | 137 | 95 | 32.2 | 0.7 | C[C@H]1CN(C)CCN1c1nccc(-c2noc([C@@]3(C)CCCc4sc(N)c(C#N)c43)n2)n1 [Example V-7]
23 | 130 | 83 | 5 | 9.8 | C[C@H]1CNCCN1c1nccc(-c2noc([C@@]3(C)CCCc4sc(N)c(C#N)c43)n2)n1 [Example V-4]
31 | 252 | 93 | 25.6 | 0.7 | C[C@H]1CN(C)CCN1c1cccc(-c2noc([C@@]3(C)CCCc4sc(N)c(C#N)c43)n2)n1 [Example V-1]
5 | 12 | >88 | 27 | 0.9 | CC(C)N1CCCN(c2nccc(-c3noc([C@@]4(C)CCCc5sc(N)c(C#N)c54)n3)n2)[C@@H](C)C1 [Example V-9]
6 | 23 | >95 | 26.4 | 1.5 | COCCCN1CCCN(c2nccc(-c3noc([C@@]4(C)CCCc5sc(N)c(C#N)c54)n3)n2)[C@@H](C)C1 [Example V-2]
8 | 38 | 94 | 21.4 | 1.7 | C[C@H]1CN(C)CCCN1c1nccc(-c2noc([C@@]3(C)CCCc4sc(N)c(C#N)c43)n2)n1 [Example V-5]
9 | 55 | >88 | 20.9 | 1.3 | C[C@H](Oc1cccc(-c2noc([C@@]3(C)CCCc4sc(N)c(C#N)c43)n2)n1)[C@@H]1CCCN1C [Example V-8]
24 | – | >88 | 14 | 0.5 | C[C@H]1CN(C)CCN1c1nccc(-c2cc([C@@]3(C)CCCc4sc(N)c(C#N)c43)on2)n1 [Example V-27]
15 | 75 | 77 | 1.2 | 19 | C[C@H]1CNCCCN1c1nccc(-c2noc([C@@]3(C)CCCc4sc(N)c(C#N)c43)n2)n1 [Example V-6]

Structure (SMILES) | IC50 (KRAS (G12C) and SOS1) [nM] | IC50 [1] [nM] | HLM QH [2] [%] | Papp A→B at 90 min, 10 μM (Caco-2 assay) [×10⁻⁶ cm/s] | efflux ratio at 90 min, 10 μM (Caco-2 assay)
C[C@H](Oc1ccnc(-c2noc([C@@]3(C)CCCc4sc(N)c(C#N)c43)n2)n1)[C@@H]1CCCN1C [Example V-11] | – | 7 | 81 | 13 | –
